Counter-ions that a name gives are not always drawn. Like-named read-outs stand apart in the source and are kept apart here.
Assays:
Assay in all cases: In Vitro Anti-Bacterial Activity Test (MIC, agar dilution)
Format in all cases: cell-based
[1] = system: Enterobacter cloacae 1321E
Method: (§1) The above in vitro antibacterial activity test was carried out in accordance with the agar culture medium dilution method (Hoechst 345) by using Muller-Hinton agar medium to determine the minimum inhibitory concentration (MIC).
(§2) The strains having 10^7 C.F.U./ml were inoculated on the culture medium, and the growth of the strains was observed after incubating them at 37° C. for 18 hours, in which ciprofloxacin was used as a control antibacterial agent. In this test, twenty typical strains were used.

Enterobacter cloacae P99 = conditions: Enterobacter cloacae, P99, 18 h
Method: as §1, §2

Escherichia coli 078 = system: Escherichia coli 078
Method: as §1, §2

Escherichia coli 1507E = conditions: Muller-Hinton agar, 37° C.
Method: as §1, §2

Escherichia coli DC0 = conditions: Muller-Hinton agar, 37° C., 18 hours, read-out: MIC
Method: as §1, §2

Escherichia coli DC2 = conditions: Escherichia coli, DC2, 18 h
Method: as §1, §2

Escherichia coli TEM = conditions: Escherichia coli, 18 h, Muller-Hinton agar, 37° C.
Method: as §1, §2

[2] = system: Klebsiella aerogenes 1522E; conditions: Klebsiella aerogenes, 1522E, 18 h, Klebsiella aerogenes 1522E; Muller-Hinton agar, 37° C., 18 hours; read-out: MIC
Method: as §1, §2

Klebsiella oxytoca 1082E = system: Klebsiella oxytoca 1082E
Method: as §1, §2

[3] = system: Pseudomonas aeruginosa 1592E; conditions: Muller-Hinton agar, 37° C., 18 hours, read-out: MIC
Method: as §1, §2

[4] = system: Pseudomonas aeruginosa 1771M; conditions: Pseudomonas aeruginosa, 1771M, 18 h, Muller-Hinton agar, 37° C.
Method: as §1, §2

[5] = system: Pseudomonas aeruginosa 1771
Method: as §1, §2

[6] = system: Pseudomonas aeruginosa 9027; conditions: Muller-Hinton agar, 37° C., 18 hours, read-out: MIC
Method: as §1, §2

Salmonella typhimurium = conditions: Salmonella enterica; Salmonella typhimurium; Muller-Hinton agar, 37° C., 18 hours; read-out: MIC
Method: as §1, §2

[7] = system: Staphylococcus aureus 285; conditions: Staphylococcus aureus, 285, 18 h, Staphylococcus aureus 285; Muller-Hinton agar, 37° C., 18 hours; read-out: MIC
Method: as §1, §2

[8] = system: Staphylococcus aureus 503; conditions: Staphylococcus aureus 503; Muller-Hinton agar, 37° C., 18 hours; read-out: MIC
Method: as §1, §2

[9] = system: Staphylococcus aureus SG511; conditions: Staphylococcus aureus SG511; Muller-Hinton agar, 37° C., 18 hours; read-out: MIC
Method: as §1, §2

[10] = system: Streptococcus faecium MD8b; conditions: Enterococcus faecium, Muller-Hinton agar, 37° C., 18 hours, read-out: MIC
Method: as §1, §2

[11] = system: Streptococcus pyogenes 308A; conditions: Muller-Hinton agar, 37° C., 18 hours, read-out: MIC
Method: as §1, §2

[12] = system: Streptococcus pyogenes 77A
Method: as §1, §2

[13] = Enterobacter cloacae 1321E, Muller-Hinton agar, 37° C., 18 hours, read-out: MIC
[14] = Escherichia coli 078, Muller-Hinton agar, 37° C., 18 hours, read-out: MIC
[15] = Klebsiella oxytoca 1082E, Muller-Hinton agar, 37° C., 18 hours, read-out: MIC
[16] = Pseudomonas aeruginosa 1771, Muller-Hinton agar, 37° C., 18 hours, read-out: MIC
[17] = Streptococcus pyogenes 77A, Muller-Hinton agar, 37° C., 18 hours, read-out: MIC
[18] = Klebsiella oxytoca, 1082E, 18 h

SMILES | MIC [1, 13] [µg/mL] | MIC (Enterobacter cloacae P99) [µg/mL] | MIC (Escherichia coli 078; [14]) [µg/mL] | MIC (Escherichia coli 1507E; Escherichia coli, 1507E, 18 h) [µg/mL] | MIC (Escherichia coli DC0) [µg/mL] | MIC (Escherichia coli DC2) [µg/mL] | MIC (Escherichia coli TEM) [µg/mL] | MIC [2] [µg/mL] | MIC (Klebsiella oxytoca 1082E; [15]) [µg/mL] | MIC [3] [µg/mL] | MIC [4] [µg/mL] | MIC [5, 16] [µg/mL] | MIC [6] [µg/mL] | MIC (Salmonella typhimurium) [µg/mL] | MIC [7] [µg/mL] | MIC [8] [µg/mL] | MIC [9] [µg/mL] | MIC [10] [µg/mL] | MIC [11] [µg/mL] | MIC [12, 17] [µg/mL] | other results
CCOC(=O)C(C(=O)OCC)C(=O)c1cn(C2CC2)c2c(Cl)c(N3CC[C@@H](N)C3)c(F)cc2c1=O [Example 23, 1-cyclopropyl-6-fluoro-8-chloro-7-(3-3R-aminopyrrolidin-1-yl)-3-(2,2-diethoxycarbonylacetyl)-1,4-dihydro-4-oxoquinoline hydrochloride] | < 0.002 | 0.004 | < 0.002 | 0.013 | 0.195 | 0.049 | 0.004 | 0.025 | < 0.002 | 0.391 | 0.098 | 0.391 | 0.781 | 0.004 | 0.049 | 0.049 | 0.049 | 0.195 | 0.781 | 0.195 | –
CCOC(=O)C(C(=O)OCC)C(=O)c1cn(C2CC2)c2c(Cl)c(N3CC[C@H](N)C3)c(F)cc2c1=O [Example 24, 1-cyclopropyl-6-fluoro-8-chloro-7-(3-3S-aminopyrrolidin-1-yl)-3-(2,2-diethoxycarbonylacetyl)-1,4-dihydro-4-oxoquinoline hydrochloride] | < 0.002 | < 0.002 | < 0.002 | – | 0.098 | 0.025 | < 0.002 | 0.013 | < 0.002 | 0.391 | 0.049 | 0.391 | 0.391 | < 0.002 | 0.049 | 0.049 | 0.049 | 0.391 | 0.391 | 0.391 | MIC (Escherichia coli 1507E; 18 hours, read-out: MIC): < 0.002 µg/mL
CCOC(=O)CC(=O)c1cn(C2CC2)c2c(Cl)c(N3CCC(N)C3)c(F)cc2c1=O (stereo not drawn) [Example 25, 1-cyclopropyl-6-fluoro-8-chloro-7-(3-aminopyrrolidin-1-yl)-3-(2-ethoxycarbonylacetyl)-1,4-dihydro-4-oxoquinoline hydrochloride] | < 0.002 | 0.004 | < 0.002 | 0.025 | 0.098 | 0.025 | < 0.002 | 0.013 | < 0.002 | 0.195 | 0.098 | 0.195 | 0.391 | 0.004 | 0.049 | 0.049 | 0.098 | 0.391 | 0.781 | 0.391 | –
CCOC(=O)CC(=O)c1cn(C2CC2)c2c(Cl)c(N3CC[C@@H](N)C3)c(F)cc2c1=O [Example 26, 1-cyclopropyl-6-fluoro-8-chloro-7-(3-3R-aminopyrrolidin-1-yl)-3-(2-ethoxycarbonylacetyl)-1,4-dihydro-4-oxoquinoline hydrochloride] | 0.004 | 0.013 | 0.004 | 0.025 | 0.195 | 0.098 | 0.013 | 0.049 | < 0.002 | 0.781 | 0.098 | 0.781 | 0.781 | 0.007 | 0.098 | 0.098 | 0.098 | 0.781 | 1.56 | – | MIC ([12]; Streptococcus pyogenes, 77A, 18 h): 0.781 µg/mL
CCOC(=O)CC(=O)c1cn(C2CC2)c2c(Cl)c(N3CC[C@H](N)C3)c(F)cc2c1=O [Example 27, 1-cyclopropyl-6-fluoro-8-chloro-7-(3-3S-aminopyrrolidin-1-yl)-3-(2-ethoxycarbonylacetyl)-1,4-dihydro-4-oxoquinoline hydrochloride] | < 0.002 | 0.004 | 0.004 | 0.013 | 0.098 | 0.013 | < 0.002 | 0.013 | < 0.002 | 0.195 | 0.098 | 0.195 | 0.391 | < 0.002 | 0.049 | 0.049 | 0.098 | 0.391 | 0.781 | 0.391 | –
CCOC(=O)C(C(=O)OCC)C(=O)c1cn(C2CC2)c2c(Cl)c(N3CC=C(CNC)C3)c(F)cc2c1=O [Example 28, 1-cyclopropyl-6-fluoro-8-chloro-7-(3-methylaminomethyl-2,5-dihydropyrrol-1-yl)-3-(2,2-diethoxycarbonylacetyl)-1,4-dihydro-4-oxoquinoline hydrochloride] | < 0.002 | < 0.002 | < 0.002 | 0.013 | 0.195 | 0.049 | 0.013 | 0.013 | 0.007 | 0.391 | 0.195 | 0.781 | 0.781 | 0.013 | 0.007 | < 0.002 | 0.004 | 0.049 | 0.098 | 0.049 | –
CCOC(=O)CC(=O)c1cn(C2CC2)c2c(Cl)c(N3CC=C(CNC)C3)c(F)cc2c1=O [Example 29, 1-cyclopropyl-6-fluoro-8-chloro-7-(3-methylaminomethyl-2,5-dihydropyrrol-1-yl)-3-(2-ethoxycarbonylacetyl)-1,4-dihydro-4-oxoquinoline hydrochloride] | – | 0.013 | – | 0.049 | 0.195 | 0.098 | 0.013 | 0.013 | 0.049 | 0.781 | 0.391 | 1.56 | 1.56 | 0.391 | 0.049 | 0.013 | 0.013 | 0.098 | 0.391 | 0.098 | MIC ([1]; Enterobacter cloacae, 1321E, 18 h): 0.007 µg/mL; MIC (Escherichia coli 078; Escherichia coli, 078, 18 h): 0.013 µg/mL
CCn1cc(C(=O)C[N+](=O)[O-])c(=O)c2cc(F)c(N3CCC(N)C3)c(F)c21 (stereo not drawn) [Example 30, 1-ethyl-6,8-difluoro-7-(3-aminopyrrolidin-1-yl)-3-(2-nitroacetyl)-1,4-dihydro-4-oxoquinoline hydrochloride] | 0.049 | 0.049 | – | 0.391 | 0.781 | 0.195 | 0.391 | 0.098 | – | 0.781 | 0.195 | – | 0.781 | 0.781 | 0.195 | 0.195 | 0.195 | 1.56 | 1.56 | 1.56 | MIC (Escherichia coli 078; Escherichia coli, 078, 18 h): 0.049 µg/mL; MIC (Klebsiella oxytoca 1082E; [18]): 0.391 µg/mL; MIC ([5]; Pseudomonas aeruginosa, 1771, 18 h): 0.391 µg/mL
NC1CCN(c2c(F)cc3c(=O)c(C(=O)C[N+](=O)[O-])cn(CCF)c3c2F)C1 (stereo not drawn) [Example 31, 1-(2-fluoroethyl)-6,8-difluoro-7-(3-aminopyrrolidin-1-yl)-3-(2-nitroacetyl)-1,4-dihydro-4-oxoquinoline hydrochloride] | 0.049 | 0.098 | – | – | 0.195 | 0.391 | 0.195 | 0.098 | – | 0.781 | 0.391 | 0.781 | 0.781 | 0.391 | 0.391 | 0.391 | 0.781 | 0.781 | 3.12 | 1.56 | MIC (Escherichia coli 078; Escherichia coli, 078, 18 h): 0.391 µg/mL; MIC (Escherichia coli 1507E; 18 hours, read-out: MIC): 0.198 µg/mL; MIC (Klebsiella oxytoca 1082E; [18]): 0.195 µg/mL
